{"source": "paper PMC4552603", "about": "(Pharmacology, biochemistry, and behavior, 2015)", "key": {"rats [1]": {"system": "rats", "details": "rat, in vivo"}, "rats [2]": {"system": "rats", "assay": "Conditioned place preference", "format": "in vivo, rat", "details": "morphine 1 mg/kg s.c.; for mean change from baseline (time in drug-paired compartment): rats"}}, "note": "Counter-ions that a name gives are not always drawn.", "data": [{"molecule": "CN1CC[C@]23c4c5ccc(O)c4O[C@H]2[C@@H](O)C=C[C@H]3[C@H]1C5", "note": "[Morphine, Morphine sulfate]", "values": [{"measurement": "responding (drug infusions) vs saline", "setting": "rats [1]", "value": "significantly greater responding than saline"}, {"measurement": "place preference", "setting": "rats [2]; vs saline, two-way ANOVA p = 0.0013", "value": "significant place preference"}, {"measurement": "mean change from baseline (time in drug-paired compartment)", "setting": "rats [2]; test session one", "value": "+83.4 sec"}, {"measurement": "mean change from baseline (time in drug-paired compartment)", "setting": "rats [2]; test session two", "value": "+96.62 sec"}]}]}
